# Test results: publication PMC9401498 (Clinical Cancer Research, 2021)
# Tests used:
# glutamine = assay: Plasma glutamine concentration; assay type: in vivo, human; settings: cycle 1, day 15 relative to predose on cycle 1, day 1; P = 0.0073; n = 6
# [1] = tested on: advanced and/or treatment-refractory solid tumors; assay: Antitumor activity by RECIST v1.1, all solid tumors; assay type: in vivo, human
# [2] = Plasma pharmacokinetics of telaglenastat; assay type: in vivo, human
# tumor cell lines = settings: preclinical, several tumor cell lines; cited from earlier work
# [3] = tested on: solid tumor xenograft mouse models; settings: preclinical, e.g., RCC, NSCLC, TNBC, hematologic malignancies; alone and in combination; cited from earlier work
# [4] = All dose expansion (N = 58), number (percent) of efficacy evaluable patients
smiles,measurement,setting,value
"O=C(Cc1cccc(OC(F)(F)F)c1)Nc1ccc(CCCCc2nnc(NC(=O)Cc3ccccn3)s2)nn1 [telaglenastat, Telaglenastat]",increase in plasma glutamine,glutamine,approximately 150%
same,Best overall response: Partial response,[1]; [4],1 (1.7)
same,Best overall response: Progressive disease,[1]; [4],33 (56.9)
same,Best overall response: Stable disease,[1]; [4],24 (41.4)
same,objective responses,[1]; BID or TID dose escalation cohorts,No objective responses
same,patients with time on study ≥6 months,[1]; SDs across different tumor types,12 patients
same,patients with PR,[1]; dose expansion (in an RCC patient),1/58
same,patients with SD,"[1]; dose expansion, 24/58",41.4%
same,patients with PD,"[1]; dose expansion, 33/58",56.9%
same,Cmin,[2]; RCC patient with PR (800 mg BID),"1,490 ng/mL"
same,half-life,"[2]; human, in vivo, 600 mg",3.73 h
same,AUC,"[2]; human, in vivo, 800 mg",19.9 µg·h/mL
same,AUC(0-t),"[2]; human, in vivo, 800 mg, AUC0–8h, steady state C1D15, 800 mg BID-fed (n = 10), mean (CV%)",9.66 µg·h/mL
same,Cmax,"[2]; human, in vivo, 800 mg, C max, steady state C1D15, 800 mg BID-fed (n = 10), mean (CV%)",1.77 µg/mL
same,concentration at 15 day of cycle 1,"[2]; human, in vivo, 800 mg, C min, steady state C1D15, 800 mg BID-fed (n = 10), median (range)",0.443 µg/mL
same,Cmax,"[2]; human, in vivo, 800 mg, Cmax, RCC patient with PR (800 mg BID)",2.96 µg/mL
same,Tmax,"[2]; human, in vivo, 800 mg, t max, steady state C1D15, 800 mg BID-fed (n = 10), (range)",4 h
same,C min,"[2]; steady state C1D15, 1,000 mg BID-fed (n = 4), median (range)",147 (73.2–221) ng/mL
same,antiproliferative activity,tumor cell lines,cytostatic and cytotoxic antiproliferative activity
same,effect on tumor growth,[3],cytostatic-suppressive effects against tumor growth
